According to PMC7846937 (Bioorganic chemistry, 2020):

Tests used:
Assay in all cases: stopped-flow CO2 hydration assay
Type in all cases: biochemical
hCA I = hCA I (Homo sapiens, UniProt P00915)
hCA II = hCA II (Homo sapiens, UniProt P00918)
hCA XII = hCA XII (Homo sapiens, UniProt O43570)
Sequence of hCA XII (O43570 30-289 limits assumed): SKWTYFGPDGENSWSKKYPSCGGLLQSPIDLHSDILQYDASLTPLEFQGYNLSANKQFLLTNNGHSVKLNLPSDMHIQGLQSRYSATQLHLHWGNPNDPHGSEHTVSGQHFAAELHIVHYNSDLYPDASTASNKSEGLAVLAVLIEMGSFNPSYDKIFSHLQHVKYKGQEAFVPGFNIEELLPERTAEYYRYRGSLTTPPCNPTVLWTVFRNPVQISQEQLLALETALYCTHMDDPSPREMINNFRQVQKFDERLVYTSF

Sequence of hCA I (P00915 2-261): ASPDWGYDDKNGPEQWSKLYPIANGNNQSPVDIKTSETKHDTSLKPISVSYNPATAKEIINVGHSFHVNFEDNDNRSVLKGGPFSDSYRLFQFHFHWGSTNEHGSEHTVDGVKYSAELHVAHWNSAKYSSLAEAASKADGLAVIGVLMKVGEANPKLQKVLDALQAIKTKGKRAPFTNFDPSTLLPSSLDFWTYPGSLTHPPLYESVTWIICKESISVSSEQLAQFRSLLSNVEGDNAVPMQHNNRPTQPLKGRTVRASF

Structure (SMILES) | Ki (hCA I) | Ki (hCA II) | Ki (hCA XII)
Cc1cc(C)[n+](-c2cccc(S(N)(=O)=O)c2)c(C)c1 [19a, 2,4,6-Trimethyl-1-(3-sulfamoylphenyl)pyridinium hexafluorophosphate] | 0.0821 µM | – | –
CCc1cc(C)cc(CC)[n+]1-c1cccc(S(N)(=O)=O)c1 [19b, 2,6-Diethyl-4-methyl-1-(3-sulfamoylphenyl)pyridinium hexafluorophosphate] | 0.0863 µM | 0.0085 µM | 0.004 µM
CCCc1cc(C)cc(CCC)[n+]1-c1cccc(S(N)(=O)=O)c1 [19c, 4-Methyl-2,6-di-n-propyl-1-(3-sulfamoylphenyl)pyridinium hexafluorophosphate] | 0.0845 µM | 0.0078 µM | 0.0036 µM
Cc1cc(C(C)C)[n+](-c2cccc(S(N)(=O)=O)c2)c(C(C)C)c1 [19d, 2,6-Diisopropyl-4-methyl-1-(3-sulfamoylphenyl)pyridinium hexafluorophosphate] | 0.0338 µM | 0.0096 µM | 0.0055 µM
CCCCc1cc(C)cc(CCCC)[n+]1-c1cccc(S(N)(=O)=O)c1 [19e, 2,6-Di-n-butyl-4-methyl-1-(3-sulfamoylphenyl)pyridinium hexafluorophosphate] | 0.462 µM | 0.0581 µM | 0.0515 µM
CCc1cc(C)cc(C)[n+]1-c1cccc(S(N)(=O)=O)c1 [19f, 2-Ethyl-4,6-dimethyl-1-(3-sulfamoylphenyl)pyridinium hexafluorophosphate] | 0.0636 µM | 0.0129 µM | 0.0037 µM
CCCc1cc(C)cc(C)[n+]1-c1cccc(S(N)(=O)=O)c1 [19g, 2,4-Dimethyl-6-n-propyl-1-(3-sulfamoylphenyl)pyridinium hexafluorophosphate] | 0.0701 µM | 0.0072 µM | 0.0054 µM
Cc1cc(C)[n+](-c2cccc(S(N)(=O)=O)c2)c(C(C)C)c1 [19h, 2-Isopropyl-4,6-dimethyl-1-(3-sulfamoylphenyl)pyridinium hexafluorophosphate] | 0.0607 µM | 0.0104 µM | 0.0074 µM
CCCCc1cc(C)cc(C)[n+]1-c1cccc(S(N)(=O)=O)c1 [19i, 2-n-Butyl-4,6-dimethyl-1-(3-sulfamoylphenyl)pyridinium hexafluorophosphate] | 0.0651 µM | 0.0068 µM | 0.004 µM
CCCCc1cc(-c2ccccc2)cc(CCCC)[n+]1-c1cccc(S(N)(=O)=O)c1 [19n, 2,6-Di-n-butyl-4-phenyl-1-(3-sulfamoyl-phenyl)-pyridinium hexafluorophosphate] | 0.433 µM | 0.0493 µM | 0.0402 µM
Cc1cc(C)[n+](-c2cccc(S(N)(=O)=O)c2)c(C)c1C [19t, 2,3,4,6-Tetramethyl-1-(3-sulfamoylphenyl)pyridinium hexafluorophosphate] | 0.0549 µM | 0.0026 µM | 0.0034 µM
Cc1c2cc(c(C)[n+]1-c1cccc(S(N)(=O)=O)c1)CCCCCCCCC2 [19u, 2,6-Dimethyl-3,5-(1,9-nonane-diyl)-1-(3-sulfamoyl-phenyl)pyridinium hexafluorophosphate] | 0.256 µM | 0.0398 µM | 0.0251 µM

The next lines start with the values.

Ki (hCA I) | Ki (hCA II) | Ki (hCA XII) | Structure (SMILES)
0.0653 µM | 0.0012 µM | 0.00087 µM | Cc1cc(-c2ccccc2)cc(C)[n+]1-c1cccc(S(N)(=O)=O)c1 [19j, 2,6-Dimethyl-4-phenyl-1-(3-sulfamoyl-phenyl)-pyridinium hexafluorophosphate]
0.0716 µM | 0.0102 µM | 0.0121 µM | CCc1cc(-c2ccccc2)cc(CC)[n+]1-c1cccc(S(N)(=O)=O)c1 [19k, 2,6-Diethyl-4-phenyl-1-(3-sulfamoyl-phenyl)-pyridinium hexafluorophosphate]
0.0758 µM | 0.018 µM | 0.0215 µM | CCCc1cc(-c2ccccc2)cc(CCC)[n+]1-c1cccc(S(N)(=O)=O)c1 [19l, 2,6-Di-n-propyl-4-phenyl-1-(3-sulfamoyl-phenyl)-pyridinium hexafluorophosphate]
0.0418 µM | 0.0093 µM | 0.0058 µM | CC(C)c1cc(-c2ccccc2)cc(C(C)C)[n+]1-c1cccc(S(N)(=O)=O)c1 [19m, 2,6-Diisopropyl-4-phenyl-1-(3-sulfamoylphenyl)pyridinium hexafluorophosphate]
0.0085 µM | 0.0034 µM | 0.00096 µM | Cc1cc(-c2ccccc2)cc(-c2ccccc2)[n+]1-c1cccc(S(N)(=O)=O)c1 [19o, 2-Methyl-4,6-diphenyl-1-(3-sulfamoyl-phenyl)-pyridinium hexafluorophosphate]
0.018 µM | 0.004 µM | 0.0014 µM | CCc1cc(-c2ccccc2)cc(-c2ccccc2)[n+]1-c1cccc(S(N)(=O)=O)c1 [19p, 2-Ethyl-4,6-diphenyl-1-(3-sulfamoyl-phenyl)-pyridinium hexafluorophosphate]
0.137 µM | 0.0439 µM | 0.0352 µM | CCCCc1cc(-c2ccccc2)cc(-c2ccccc2)[n+]1-c1cccc(S(N)(=O)=O)c1 [19s, 2-n-Butyl-4,6-diphenyl-1-(3-sulfamoyl-phenyl)-pyridinium hexafluorophosphate]
0.0723 µM | 0.0088 µM | 0.0047 µM | Cc1cc(C)[n+](-c2cccc(S(N)(=O)=O)c2)c(-c2ccccc2)c1 [19v, 2,4-Dimethyl-6-phenyl-1-(3-sulfamoylphenyl)pyridinium hexafluorophosphate]
0.0197 µM | 0.0067 µM | 0.0088 µM | Cc1cc(-c2ccccc2)[n+](-c2cccc(S(N)(=O)=O)c2)c(-c2ccccc2)c1 [19w, 4-Methyl-2,6-diphenyl-1-(3-sulfamoylphenyl)pyridinium hexafluorophosphate]
0.058 µM | 0.013 µM | 0.0217 µM | NS(=O)(=O)c1cccc(-[n+]2c(-c3ccccc3)cc(-c3ccccc3)cc2-c2ccccc2)c1 [19x, 2,4,6-Triphenyl-1-(3-sulfamoylphenyl)pyridinium hexafluorophosphate]
